This note sets out measurements from article PMC9539459 (Virology, 2022).

Entries after “also recorded” stand apart in the source; their conditions may differ. Where two headings read alike, the source gives them in different places.

Test [1] relates to SARS-CoV-2. The test is described as follows: Cell-based antiviral drug testing in Vero-E6 cells. The settings on record: for antiviral activity (in words): top 9 screened compounds, Vero-E6, percent inhibition, SRB assay.
Test [2] has as its system SARS-CoV-2. In kind it is cell-based.

For the compound `C/C=C(/C)C(=O)OC(C)(C)[C@@H]1Cc2c(ccc3ccc(=O)oc23)O1` [Columbianadin], the “antiviral activity (in words)” value with SARS-CoV-2 [1] is given as “substantial antiviral activity”. In addition, in the test on SARS-CoV-2 [2], the “inhibition of viral particle production (in words)” value (“inhibition” for short) is listed as “inhibit production of SARS-CoV-2”.

In the case of `CNC(=O)c1ccc(-c2cnc3ncc(Cc4ccc5ncccc5c4)n3n2)cc1F` [INCB28060], in the test with SARS-CoV-2 [1], the “antiviral activity (in words)” value is “best antiviral activity; also recorded: substantial antiviral activity”. In addition, in the test with SARS-CoV-2 [2], the “inhibition” value is recorded as “inhibit production of SARS-CoV-2; also recorded: greater anti-SARS-CoV-2 activity” and the “reduction of infectious virus production” value was “over 3 orders of magnitude”.

For `Cc1oc(-c2ccccc2)nc1CCC(=O)c1ccc(CC2SC(=O)NC2=O)cc1` (stereo not shown) [Darglitazone Sodium], in the test with SARS-CoV-2 [1], the concentration for a half-maximal effect (EC50) was below 10 µM and the “antiviral activity (in words)” value is “substantial antiviral activity”. Also, in the test on SARS-CoV-2 [2], the “inhibition” value is “greater anti-SARS-CoV-2 activity” and the “reduction of infectious virus production” value is “over 3 orders of magnitude”. Moreover, the “inhibition” value in the test with SARS-CoV-2 [2] (listed as darglitazone sodium) is reported as “inhibit production of SARS-CoV-2”.
